Experimental data reported in patent US20220257595A1, “MACITENTAN FOR USE IN TREATING PORTOPULMONARY HYPERTENSION” (ACTELION PHARMACEUTICALS LTD, priority 2019, published 2022).
Values joined by “and” are separate entries in the source; they are usually repeats but may differ in a detail not shown here. Equal values may be shown once.

Test system: patients with PoPH
Assay: PORTICO safety: treatment-emergent AEs, SAEs, AESIs, deaths, discontinuations
Format: in vivo
From the text: For the evaluation of treatment-emergent safety endpoints in the DB phase, the observation period for each individual subject started at the time of the first administration of macitentan or placebo and ended with the start of OL treatment or 30 days after DB treatment discontinuation (whichever occurred first). The safety variables listed below apply to the DB treatment-emergent period and the macitentan treatment-emergent period. The DB treatment-emergent period was defined as the period from the DB treatment start date up to the EOT-DB+30 days or to the EOT-DB for patients entering OL. The macitentan treatment-emergent period was defined as the period from the first intake of macitentan up to end of macitentan treatment (EOMT)+30 days. EOMT was defined as EOT-DB (for patient who received macitentan only in the DB period) or EOT-OL when applicable. For patients entering OLE, the EOMT is EOT-OL. • Treatment-emergent AEs • Treatment-emergent deaths • Treatment-emergent serious adverse events (SAEs) • AEs leading to premature discontinuation of study treatment • Occurrence of post-baseline LFT (ALT and/or AST) abnormalities, classified as: • ≥3×ULN; • ≥5×ULN; • ≥8×ULN; • ≥3×ULN and <5×ULN; • […] and <8×ULN. • Occurrence of post-baseline ALT and/or AST abnormality 3×ULN and concomitant (i.e., at the same time) total bilirubin ≥2×ULN • Occurrence of post-baseline ALT and/or AST abnormality ≥3×ULN and concomitant (i.e., at the same time) total bilirubin ≥2×ULN and increased as compared to baseline • Occurrence of hemoglobin abnormalities, classified as: • ≤80 g/L, • >80 and ≤100 g/L, • decrease from baseline ≥20 g/L and <50 g/L, • decrease from baseline ≥50 g/L, • <100 g/L and concurrent (i.e., at the same time) decrease from baseline ≥20 g/L. • Other treatment-emergent marked laboratory abnormalities • Change from baseline/macitentan baseline to EOT-DB/EOMT in vital signs • Change from baseline/macitentan baseline to EOT-DB/EOMT in laboratory variables • Change from baseline/macitentan baseline to EOT-DB/EOMT in Child-Pugh classification • Change from baseline/macitentan baseline to EOT-DB/EOMT in MELD score
(i) Adverse events: All AEs occurring after study start (i.e., signing of informed consent) and up to 30 days after study treatment discontinuation were required to be recorded. AEs still ongoing more than 30 days after study treatment discontinuation were required to be followed up until they were no longer considered clinically relevant.
(ii) Serious adverse events, including associated with study design or protocol-mandated procedures: During the screening period, all SAEs occurring after study start (i.e., signing of informed consent) were required to be recorded (whether considered associated or not associated to study design or study-mandated procedures). All SAEs, regardless of investigator-attributed causal relationship, occurring during the treatment period up to the end of the 30-day follow up period, were required to be reported. SAEs still ongoing at the EOS visit were required to be followed up until resolution or stabilization, or until the event outcome was provided, e.g., death. New SAEs occurring after the 30-day follow-up period were required to be reported within 24 hours.
In addition, the following adverse events of special interest (AESIs) were analyzed: • “Edema and fluid retention”
Any treatment-emergent AE with PT listed in the Standardised MedDRA Query (SMQ) “Haemodynamic oedema, effusions and fluid overload (SMQ)” or with PT equal to “Pulmonary congestion” defined in the latest available MedDRA version, with the exception of PTs containing “site”. • “Anemia”

[1] = macitentan DB + OL phase, Macitentan treated set, N = 84
[2] = macitentan DB+OL phase, MTS N=84

CCCNS(=O)(=O)Nc1ncnc(OCCOc2ncc(Br)cn2)c1-c1ccc(Br)cc1 [macitentan, N-[5-(4-Bromophenyl)-6-[2-[(5-bromo-2-pyrimidinyl)oxy]ethoxy]-4-pyrimidinyl]-N′-propylsulfamide]
AEs of special interest Hepatic disorders, Blood bilirubin increased [1]: 1 (1.2) n (%) | AEs of special interest Hepatic disorders, Hepatocellular carcinoma [1]: 1 (1.2) n (%) | AEs of special interest Hepatic disorders, Jaundice [1]: 1 (1.2) n (%) | AEs of special interest Hepatic disorders, Liver function test abnormal [1]: 1 (1.2) n (%) | AEs of special interest Hepatic disorders, Liver function test increased [1]: 1 (1.2) n (%) | AEs of special interest Hepatic disorders, Portal hypertensive gastropathy [1]: 1 (1.2) n (%) | AEs of special interest Hepatic disorders, Portopulmonary hypertension [1]: 1 (1.2) n (%) | AEs of special interest Hepatic disorders, Subjects with atleast one AE [1]: 13 (15.5) n (%) | AEs of special interest Hepatic disorders, Total bile acids increased [1]: 2 (2.4) n (%) | AEs of special interest Hepatic disorders, Varices oesophageal [1]: 1 (1.2) n (%) | Subjects with at least one AE [1]: 74 (88.1) n (%) | Subjects with at least one SAE [1]: 25 (29.8) n(%) | Treatment-emergent AE, Abdominal pain [1]: 4 (4.8) n (%) | Treatment-emergent AE, Acute kidney injury [1]: 3 (3.6) n (%) | Treatment-emergent AE, Anaemia [1]: 12 (14.3) n (%) | Treatment-emergent AE, Arthralgia [1]: 3 (3.6) n (%) | Treatment-emergent AE, Ascites [1]: 4 (4.8) n (%) | Treatment-emergent AE, Asthenia [1]: 4 (4.8) n (%) | Treatment-emergent AE, Bronchitis [1]: 8 (9.5) n (%) | Treatment-emergent AE, Dizziness [1]: 7 (8.3) n (%) | Treatment-emergent AE, Dyspnoea [1]: 4 (4.8) n (%) | Treatment-emergent AE, Dyspnoea exertional [1]: 3 (3.6) n (%) | Treatment-emergent AE, Fall [1]: 3 (3.6) n (%) | Treatment-emergent AE, Haemoglobin decreased [1]: 6 (7.1) n (%) | Treatment-emergent AE, Headache [1]: 16 (19.0) n (%) | Treatment-emergent AE, Hepatic encephalopathy [1]: 4 (4.8) n (%) | Treatment-emergent AE, Hypokalaemia [1]: 3 (3.6) n (%) | Treatment-emergent AE, Hypotension [1]: 4 (4.8) n (%) | Treatment-emergent AE, Influenza like illness [1]: 3 (3.6) n (%) | Treatment-emergent AE, Iron deficiency anaemia [1]: 3 (3.6) n (%) | Treatment-emergent AE, Muscle spasms [1]: 3 (3.6) n (%) | Treatment-emergent AE, Nausea [1]: 4 (4.8) n (%) | Treatment-emergent AE, Oedema peripheral [1]: 23 (27.4) n (%) | Treatment-emergent AE, Pain in extremity [1]: 7 (8.3) n (%) | Treatment-emergent AE, Pruritus [1]: 3 (3.6) n (%) | Treatment-emergent AE, Pulmonary arterial hypertension [1]: 3 (3.6) n (%) | Treatment-emergent AE, Rash [1]: 3 (3.6) n (%) | Treatment-emergent AE, Rhinitis [1]: 5 (6.0) n (%) | Treatment-emergent AE, Right ventricular failure [1]: 6 (7.1) n (%) | Treatment-emergent AE, Urinary tract infection [1]: 3 (3.6) n (%) | Treatment-emergent AE, Viral upper respiratory tract infection [1]: 4 (4.8) n (%) | Treatment-emergent AE, Vomiting [1]: 3 (3.6) n (%) | Treatment-emergent SAE, Abdominal pain [1]: 1 (1.2) n(%) | Treatment-emergent SAE, Acute kidney injury [1]: 2 (2.4) n(%) | Treatment-emergent SAE, Alveolitis [1]: 1 (1.2) n(%) | Treatment-emergent SAE, Anaemia [1]: 2 (2.4) n(%) | Treatment-emergent SAE, Ascites [1]: 2 (2.4) n(%) | Treatment-emergent SAE, Asthma [1]: 1 (1.2) n(%) | Treatment-emergent SAE, Atrial fibrillation [1]: 1 (1.2) n(%) | Treatment-emergent SAE, Bronchitis [1]: 1 (1.2) n(%) | Treatment-emergent SAE, Chronic kidney disease [1]: 1 (1.2) n(%) | Treatment-emergent SAE, Fall [1]: 1 (1.2) n(%) | Treatment-emergent SAE, Fluid overload [1]: 1 (1.2) n(%) | Treatment-emergent SAE, Gastrointestinal haemorrhage [1]: 1 (1.2) n(%) | Treatment-emergent SAE, Haemoptysis [1]: 1 (1.2) n(%) | Treatment-emergent SAE, Hepatic encephalopathy [1]: 3 (3.6) n(%) | Treatment-emergent SAE, Hepatocellular carcinoma [1]: 1 (1.2) n(%) | Treatment-emergent SAE, Humerus fracture [1]: 1 (1.2) n(%) | Treatment-emergent SAE, Hypersensitivity [1]: 1 (1.2) n(%) | Treatment-emergent SAE, Ileus [1]: 1 (1.2) n(%) | Treatment-emergent SAE, Intervertebral disc protrusion [1]: 1 (1.2) n(%) | Treatment-emergent SAE, Iron deficiency anaemia [1]: 1 (1.2) n(%) | Treatment-emergent SAE, Left ventricular failure [1]: 1 (1.2) n(%) | Treatment-emergent SAE, Liver function test increased [1]: 1 (1.2) n(%) | Treatment-emergent SAE, Localised oedema [1]: 1 (1.2) n(%) | Treatment-emergent SAE, Lung infection [1]: 1 (1.2) n(%) | Treatment-emergent SAE, Malignant ascites [1]: 1 (1.2) n(%) | Treatment-emergent SAE, Melaena [1]: 2 (2.4) n(%) | Treatment-emergent SAE, Oedema peripheral [1]: 2 (2.4) n(%) | Treatment-emergent SAE, Osteitis [1]: 1 (1.2) n(%) | Treatment-emergent SAE, Pneumonia [1]: 1 (1.2) n(%) | Treatment-emergent SAE, Presyncope [1]: 1 (1.2) n(%) | Treatment-emergent SAE, Priapism [1]: 1 (1.2) n(%) | Treatment-emergent SAE, Pulmonary arterial hypertension [1]: 2 (2.4) n(%) | Treatment-emergent SAE, Pulmonary toxicity [1]: 1 (1.2) n(%) | Treatment-emergent SAE, Right ventricular failure [1]: 4 (4.8) n(%) | Treatment-emergent SAE, Staphylococcal infection [1]: 1 (1.2) n(%) | Treatment-emergent SAE, Subdural haematoma [1]: 1 (1.2) n(%) | Treatment-emergent SAE, Syncope [1]: 1 (1.2) n(%) | Treatment-emergent SAE, Thrombocytopenia [1]: 1 (1.2) n(%) | Treatment-emergent SAE, Tinnitus [1]: 1 (1.2) n(%) | Treatment-emergent SAE, Troponin I increased [1]: 1 (1.2) n(%) | Treatment-emergent SAE, Urosepsis [1]: 1 (1.2) n(%) | Anemia AEs reported as SAEs (macitentan DB+OL phase): 2 and 3 | Patients who discontinued treatment due to AEs (macitentan DB+OL phase): 10 patients | Patients who had an SAE (macitentan DB+OL phase): 29.8% | Patients with edema and fluid retention AEs reported as serious (macitentan DB+OL phase): 2 patients | Patients with hepatic disorder AEs reported as SAEs (macitentan DB+OL phase): 5 patients | Peripheral edema leading to discontinuation of treatment (macitentan DB+OL phase): 2 patients | Patients with hepatic disorder AEs (macitentan DB+OL phase (13 patients)): 15.5% | Patients with anemia AEs (macitentan DB+OL phase (22 patients)): 26.2% | Patients with edema and fluid retention AEs (macitentan DB+OL phase (26 patients)): 31.0% | Decreased hemoglobin considered related to study treatment (macitentan DB+OL phase, 3 patients): 3.6% | Most frequent severe AEs (peripheral edema, right ventricular failure, acute kidney injury), each (macitentan DB+OL phase, 3 patients each): 3.6% | Anemia considered related to study treatment (macitentan DB+OL phase, 4 patients): 4.8% | Peripheral edema considered related to study treatment (macitentan DB+OL phase, 10 patients): 11.9% | Headache considered related to study treatment (macitentan DB+OL phase, 11 patients): 13.1% | Patients with AEs of severe intensity (macitentan DB+OL phase, 19 patients): 22.6% | Subjects with AE leading to study drug discontinuation [2]: 10 (11.9) n (%) | Subjects with Drug-Related AE [2]: 33 (39.3) n (%) | Subjects with Drug-Related serious AE [2]: 8 (9.5) n (%) | Subjects with Fatal serious AE [2]: 4 (4.8) n (%) | Subjects with Serious AE [2]: 25 (29.8) n (%) | Subjects with Severe AE [2]: 19 (22.6) n (%) | Subjects with at least one AE (macitentan DB+OL phase, Macitentan treated set N=84): 74 (88.1) n (%) | Overall safety and tolerability (patients with PoPH and mild or moderate liver impairment): good safety profile and is well tolerated
